The values that follow come from patent US4260607A, “Cephalosporin esters” (Takeda Chemical Industries, Ltd., priority 1976, dated 1981).

By MIC is commonly meant the smallest concentration in the dilution series that meets the test's criterion for growth inhibition.

SMILES strings stand for the structures. In brackets after ≈: the same amount, converted by molar mass. Structures can show the parent of a compound that is named as a salt.

One data set relates to S. aureus 1840. Kind of data set: MIC, S. aureus 1840. It counts as cell-based. To be noted: unit assumed.
Another data set deals with P. vulgaris Eb. 58. As to the kind of experiment: MIC, P. vulgaris Eb. 58. It counts as cell-based. To be noted: unit assumed.
For the next data set, the system named is E. coli 0-111. As to the kind of experiment: MIC, E. coli 0-111. The data set is classed as cell-based. To be noted: unit assumed.
Another data set deals with K. pneumoniae DT. As to the kind of experiment: MIC, K. pneumoniae DT. To be noted: unit assumed. The data set is classed as cell-based.
For a further data set, the system named is E. coli NIHJ JC-2. As to the kind of experiment: MIC, E. coli NIHJ JC-2. Conditions: unit assumed. It counts as cell-based.
For a further data set, the system named is S. aureus 209P. Kind of data set: MIC, S. aureus 209P. It counts as cell-based. Conditions: unit assumed.
For data set [1] the following is noted: in vivo, po; for Blood-level in rat, 0.5 hours: 30 min; for Blood-level in rat, 1 hour: 60 min; for Blood-level in rat, 2 hours: 120 min; for Hydrolysis of 4-position ester after absorption in blood: rat.

As for `CC1=C(C(=O)O)N2C(=O)[C@@H](NC(=O)[C@H](N)c3ccccc3)[C@H]2SC1` [Cephalexin, reference compound], the MIC was determined as 12.5 µg/mL (≈ 36 µM) against S. aureus 1840; 12.5 µg/mL (≈ 36 µM) against P. vulgaris Eb. 58; 12.5 µg/mL (≈ 36 µM) in the data set on E. coli 0-111; 6.25 µg/mL (≈ 18 µM) in the data set with K. pneumoniae DT; 12.5 µg/mL (≈ 36 µM) against E. coli NIHJ JC-2.
`Cc1nnc(SCC2=C(C(=O)O)N3C(=O)[C@@H](NC(=O)Cc4csc(=N)[nH]4)[C@H]3SC2)s1` [Compound (A)]: the MIC came to 0.78 µg/mL (≈ 1.61 µM) in the data set with S. aureus 1840; 0.39 µg/mL (≈ 0.805 µM) with S. aureus 209P; 0.78 µg/mL (≈ 1.61 µM) in the data set on P. vulgaris Eb. 58; 0.39 µg/mL (≈ 0.805 µM) in the data set on E. coli 0-111; 0.39 µg/mL (≈ 0.805 µM) against K. pneumoniae DT; 1.56 µg/mL (≈ 3.22 µM) against E. coli NIHJ JC-2.
`Cc1nnc(SCC2=C(C(=O)OCOC(=O)C(C)(C)C)N3C(=O)[C@@H](NC(=O)Cc4csc(=N)[nH]4)[C@H]3SC2)s1` [Example 1, 7β-(2-imino-4-thiazolin-4-yl)acetamido-3-(5-methyl-1,3,4-thiadizolyl-2-yl)thiomethyl-3-cephem-4-pivaloyloxymethyl carboxylate hydrochloric acid salt]: in data set [1] (100 mg/kg), the “Blood-level in rat, 0.5 hours” value stood at 31.8 meg/ml; the “Blood-level in rat, 1 hour” value came out at 29.3 meg/ml; the “Blood-level in rat, 2 hours” value stood at 22.0 meg/ml. Besides, the “Blood-level in rat, 4 hours” value in data set [1] (100 mg/kg, 240 min) was 8.7 meg/ml. Moreover, the “Hydrolysis of 4-position ester after absorption in blood” value in data set [1] is reported as “hydrolyzed at 4-position carboxylic acid ester after being absorbed in blood”.
For `CCOC(=O)OC(C)OC(=O)C1=C(CSc2nnc(C)s2)CS[C@@H]2[C@H](NC(=O)Cc3csc(=N)[nH]3)C(=O)N12` (some centres unmarked) [Example 2], in data set [1] (100 mg/kg), the “Blood-level in rat, 0.5 hours” value was 32.4 meg/ml; the “Blood-level in rat, 1 hour” value is given as 28.3 meg/ml; the “Blood-level in rat, 2 hours” value is listed as 21.0 meg/ml. The “Hydrolysis of 4-position ester after absorption in blood” value in data set [1] was “hydrolyzed at 4-position carboxylic acid ester after being absorbed in blood”.
